Read-outs that look alike come from different tables or passages of the source. Values belong to the molecule of their own block, whether it stands above or below them.
Key:
[1] = system: isolated, buffer perfused rat hearts; assay: Global ischemia (25 min) and reperfusion (30 min) in isolated, buffer perfused rat hearts (Langendorff)
Method: For the determination of the effect of the potassium channel activators pinacidil and BRL 34915 (cromakalim) on post-ischemic necrosis and function, isolated, buffer perfused rat hearts were used. Male Sprague-Dawely rats (450-550 g) were used for all experiments. The rats were anesthetized using 30 mg/kg sodium pentobarbital (i.p.) They were intubated and then treated with i.v. heparin (1000 U/kg). While being mechanically ventilated, their hearts were perfused in situ via retrogade cannulation of the aorta. The hearts were then excised and quickly moved to a Langendorff apparatus where they were perfused with Krebs-Henseleit (1.25 mM CaCl₂) buffer at a constant pressure (80 mmHg). A saline-filled latex balloon attached to a metal cannula was then inserted into the left ventricle and connected to a Statham pressure transducer for measurement of left ventricular systolic and developed (LVDP) pressure. The hearts were allowed to equilibrate for 15 minutes at which time end diastolic pressure (EDP) was adjusted to 5 mm Hg and this was maintained for 5 minutes. Pre-ischemia, pre-drug function (HRXLVDP/1000), heart rate, and coronary blood flow (extracorporeal electromagnetic flow probe, Carolina Medical Electronics, King, N.C.) were then determined.
Once the baseline measurements were made, the hearts were divided into 4 groups (n=4-6 each): 1. Hearts receiving vehicle. 2. Hearts receiving 1, 10 or 100 µM pinacidil. 3. Hearts receiving 1 or 7 µM BRL 34915. 4. Hearts receiving 1, 10 or 100 µM nicroandil. Each heart received its respective treatment in the perfusion buffer for 10 minutes at which time functional and flow parameters were again measured. All hearts were then made globally ischemic by shutting off the perfusate for 25 minutes. Reperfusion was then instituted with the normal nondrug treated buffer. Reperfusion was maintained for 30 minutes at which time flow and functional parameters were again measured. Lactate dehydrogenase (LDH) release into the reperfusion effluent was measured and this is a measure of myocardial cell death or necrosis. The severity of ischemia was determined by the return of function during reperfusion, mitigation of contracture (lower end diastolic pressure) and LDH release.

rat portal vein = assay: Inhibition of spontaneous mechanical activity (twitch height and frequency) in isolated rat portal vein; conditions: for IC50: Rattus norvegicus
Method: (§1) A bicarbonate buffered physiological salt solution (PSS) was used containing, in mM: 118.4 NaCl, 4.7 KCl, 1.2 KH₂PO₄ 1.2 MgSO₄, 2.5 CaCl₂, 25.0 NaHCO₃ and 11.7 glucose. PSS with varying concentrations of KCl was prepared by addition of appropriate amounts of KCl from a 4M KCl stock. Calcium free PSS was prepared by deletion of CaCl₂ and addition of 1.0 mM [ethylenebis(oxyethylenitrilo)]-tetraacetic acid (EGTA). All solutions were aerated with 95% O₂-5% CO₂ such that the pH was 7.4. Experiments were conducted at 37°C.
Stock solutions of test compounds were prepared daily. The compounds were dissolved in water or DMSO as appropriate.
(§2) Normotensive male Wistar Kyoto rats approximately 14 weeks old were sacrificed using CO₂. The thoracic aorta and portal vein were quickly removed and placed into cold PSS. Blood was rinsed from the lumen and adherent connective tissue was carefully removed. Rings approximately 4 mm in width were cut from each aorta. The endothelium was mechanically removed by inserting a wire into the lumen and gently rolling the ring on filter paper moistened with PSS. The aortic rings were mounted on stainless steel tissue wires attached to tissue holders. An intact segment of portal vein extending approximately 2 cm from the liver hilus was mounted longitudinally on tissue holders. The tissues were suspended in individual 20 ml organ chambers and connected to a micrometer for control of tissue length and a Grass FT.03 force transducer. Mechanical responses were recorded on Grass Model 7D polygraphs.
The rat portal vein segments were gradually stretched over a 1 to 2 hour equilibration period to a preload of 0.5 g. When the frequency and height of the spontaneous twitches had stabilized, propranolol (1 µM) was added and cumulative concentration response curves were obtained for the test compounds. A steady state reduction of the twitch height and frequency was reached before the next concentration was added.
Force development by the portal vein segments was determined at the peak of the twitch. The effect of each compound on force was calculated relative to the force in its absence. IC₅₀ values were determined at the concentration where 50% of the maximal inhibition force was attained. In addition, the relative frequency of twitches was determined by counting the number of twitches in a 5 minute period following drug addition and determining the change in rate from basal (absence of test compund). Results were then calculated as % inhibition of twitch frequency. Data are report as mean ± SEM.

[2] = system: Ischemic-Reperfused Myocardium; conditions: infusion prior to and during a 15-min coronary occlusion; 3-h reperfusion period; cited from earlier work
aorta = assay: Comparison of potency in aorta (phenylephrine contractions) and portal vein; design: species or system rat; conditions: portal vein compared with aorta
Method: as §1
as §2, with “The tissues were suspended in individual 20 ml organ chambers and connected to a micrometer for control of tissue length and a Grass FT.03 force transducer.” left out

[3] = system: awake dogs with acute myocardial infarction; conditions: cited from earlier work
[4] = inhibition of spontaneous mechanical activity (twitch height), cumulative concentration response curves, propranolol 1 µM present, N=4 (cromakalim, pinacidil N=5), read-out: IC₅₀

- IC50 (rat portal vein; [4]): 0.12 µM
Structure (SMILES): CC1(C)Oc2ccc(C#N)cc2[C@@H](N2CCCC2=O)[C@@H]1O (racemic) [Cromakalim, (±)-6-cyano-3,4-dihydro-2,2-dimethyl-trans-4-(2-oxo-1-pyrrolidyl)-2H-benzo[b]-pyran-3-ol]
- LDH release and thus necrosis ([1]; 7 µM): reduced
- myocardial function during reperfusion ([1]; 7 µM): improved

- IC50 (rat portal vein; values restated in text, read-out: IC₅₀ (50% of the maximum inhibition) in the inhibition of spontaneous mechanical activity in rat portal vein): 5.1 µM
- IC50 (rat portal vein; [4]): 5.1 µM
Structure (SMILES): O=C(NCCO[N+](=O)[O-])c1cccnc1 [Nicorandil, N-(2-hydroxyethyl)nicotinamide nitrate ester]
- effectiveness (anti-ischemic) ([1]; any dose used (1, 10 or 100 µM)): not showed to be effective
- recovery of mycocardial segment function (%SS, dL/dt) [2]: significantly improved recovery
- potency in the aorta and portal vein (aorta): reduced potency

Structure (SMILES): CC(NC(=NC#N)Nc1ccncc1)C(C)(C)C (single isomer, unassigned; (+)) [Pinacidil, (+)-2-cyano-1-(4-pyridyl)-3-(1,2,2-trimethylpropyl)guanidine]
- post-ischemic cardiac function ([1]; 10 µM, 30 min reperfusion): significantly improved
- reperfusion end diastolic pressure (EDP) (contracture) ([1]; 10 µM, 30 min reperfusion): reduced
- toxic effects (before ischemia reduction in function) ([1]; 100 µM): a tendency for toxic effects
- anti-ischemic activity ([1]; 1 and 100 µM in perfusion buffer for 10 min before ischemia): did not show any marked anti-ischemic activity
- necrosis as measured by lactate dehydrogenase (LDH) release ([1]; at the doses used (1, 10 or 100 µM)): did not significantly reduce necrosis
- blood flow to ischemic myocardium [3]: no effect
- infarct size [3]: no effect
- IC50 (rat portal vein; [4]): 0.15 µM

Structure (SMILES): O=C(O)c1cccnc1 [nicotinic acid]
- recovery of mycocardial segment function (%SS, dL/dt) [2]: significantly improved recovery

- IC50 (rat portal vein; [4]): 38 µM
Structure (SMILES): CC1(C)Oc2ccc(C#N)cc2[C@@H](N)[C@@H]1O (relative stereo) [SQ 32,844, (trans)-4-amino-3,4-dihydro-3-hydroxy-2,2-dimethyl-2H-1-benzopyran-6-carbonitrile]

- IC50 (rat portal vein; [4]): 43 µM
Structure (SMILES): Nc1nc2c(nc(Br)n2[C@@H]2O[C@@H]3COP(=O)(O)O[C@H]3[C@H]2O)c(=O)[nH]1 [8-Bromo cyclic GMP]
- twitch frequency (rat portal vein; frequency of spontaneous contractions with increasing concentration): reduced twitch frequency

Reference: patent EP0351767A2, “Use of potassium channel activators to inhibit myocardial cell necrosis and to maintain the functioning of the heart during myocardial ischemia and/or reperfusion” (E.R. SQUIBB & SONS, INC., priority 1988, dated 1990)
